Data on 16 molecules can be found in ChEMBL document CHEMBL4052734, “Synthesis of novel 2-pyrazoline analogues with potent anti-inflammatory effect mediated by inhibition of phospholipase A2: Crystallographic, in silico docking and QSAR analysis” (Bioorg Med Chem Lett, 2017).

Converted amounts (≈) assume the structure as drawn. The source made the active and inactive calls. The rule behind the calls is not given here.

The test system of one test is Aspergillus niger. In words: Antifungal activity against Aspergillus niger after 72 hrs by serial dilution method. The format is functional.
Another test deals with Candida albicans. Kind of test: Antifungal activity against Candida albicans MTCC 227 after 72 hrs by serial dilution method. The class given is functional.
For test [1], the target named is T1, Basic phospholipase A2 VRV-PL-VIIIa (Daboia russelii) (UniProt P59071).
T1 sequence (whole entry): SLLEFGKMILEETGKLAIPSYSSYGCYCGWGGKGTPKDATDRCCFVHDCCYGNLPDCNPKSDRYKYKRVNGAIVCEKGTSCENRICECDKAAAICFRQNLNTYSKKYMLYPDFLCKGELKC
In words: Inhibition of Vipera russelii venom sPLA2 using DMPC as substrate at 10.214 uM preincubated for 2 mins followed by substrate addition measured after 30 mins in presence of 1 to 12 mM CaCl2.

The target of test [2] is T2, Basic phospholipase A2 VRV-PL-VIIIa (Daboia russelii, UniProt P59071).
T2 sequence (P59071 whole entry): T1 sequence (whole entry)
In words: (§1) Inhibition of Vipera russelii venom sPLA2 using DMPC as substrate preincubated for 2 mins followed by substrate addition measured after 30 mins.

Test [3] concerns the target T1, Basic phospholipase A2 VRV-PL-VIIIa (Daboia russelii). The description is as §1.
The next test deals with Bacillus subtilis. Kind of test: Antibacterial activity against Bacillus subtilis MTCC 441 after 24 hrs by serial dilution method. The note with it: MTCC 441, 24 h. The format is functional.
The next test deals with Escherichia coli. Kind of test: Antibacterial activity against Escherichia coli MTCC 1687 after 24 hrs by serial dilution method. The format is functional. The note with it: MTCC 1687, 24 h.
The subject of the next test is Staphylococcus aureus. Kind of test: Antibacterial activity against Staphylococcus aureus MTCC 737 after 24 hrs by serial dilution method. The class given is functional. The note with it: MTCC 737, 24 h.
A further test relates to Aspergillus flavus. In words: Antifungal activity against Aspergillus flavus after 72 hrs by serial dilution method. The class given is functional.
For test [4], the target named is T1, Basic phospholipase A2 VRV-PL-VIIIa (Daboia russelii). In words: Inhibition of Vipera russelii venom sPLA2 using DMPC as substrate at 11.930 uM preincubated for 2 mins followed by substrate addition measured after 30 mins in presence of 1 to 12 mM CaCl2.
The target is the same in test [5]. In words: Inhibition of Vipera russelii venom sPLA2 using DMPC as substrate at 11.102 uM preincubated for 2 mins followed by substrate addition measured after 30 mins in presence of 1 to 12 mM CaCl2.

Take `Clc1ccc(C2=NN(c3ccccc3)C(c3cccc(Cl)c3Cl)C2)cc1` (stereo unspecified): the MIC90 against Aspergillus niger stood at 25 µg/mL (≈ 62.2 µM); with Candida albicans (MTCC 227, 72 h), 15 µg/mL (≈ 37.3 µM); in the test on Bacillus subtilis, 125 µg/mL (≈ 311 µM); with Escherichia coli, 20 µg/mL (≈ 49.8 µM); in the test on Staphylococcus aureus, 15 µg/mL (≈ 37.3 µM); in the test on Aspergillus flavus, 120 µg/mL (≈ 299 µM). Besides, in test [1], the inhibition entry is “Active”. Besides, the IC50 in test [2] came to 10.2 µM. Moreover, the inhibition entry in test [3] was “Dose-dependent effect”.

As for `Clc1ccc(C2=NN(c3cccc(Cl)c3)C(c3cccc(Cl)c3Cl)C2)cc1` (stereo unspecified), the MIC90 in the test with Aspergillus niger turned out to be 15 µg/mL (≈ 34.4 µM); in the test on Candida albicans (MTCC 227, 72 h), 15 µg/mL (≈ 34.4 µM); against Bacillus subtilis, 100 µg/mL (≈ 229 µM); against Escherichia coli it was 15 µg/mL (≈ 34.4 µM); with Staphylococcus aureus, 10 µg/mL (≈ 22.9 µM); in the test on Aspergillus flavus it was 110 µg/mL (≈ 252 µM). In [2], this molecule displayed an IC50 of 14.6 µM. For the same molecule, in test [3], the inhibition entry was “Dose-dependent effect”.

On to `Fc1ccc(C2=NN(c3cccc(Cl)c3)C(c3cccc(Cl)c3Cl)C2)cc1` (stereo unspecified), for which the MIC90 in the test with Aspergillus niger is 30 µg/mL (≈ 71.5 µM); against Candida albicans (MTCC 227, 72 h) it was 50 µg/mL (≈ 119 µM); in the test with Bacillus subtilis, 120 µg/mL (≈ 286 µM); with Escherichia coli, 25 µg/mL (≈ 59.6 µM); in the test on Staphylococcus aureus, 40 µg/mL (≈ 95.3 µM); against Aspergillus flavus it was 130 µg/mL (≈ 310 µM). In test [2], the IC50 was 19.2 µM. Also, the inhibition entry in test [3] is “Dose-dependent effect”.

Turning to `COc1cccc(C2=NN(c3cccc(Cl)c3)C(c3cccc(Cl)c3Cl)C2)c1` (stereo unspecified), the MIC90 against Aspergillus niger was determined as 60 µg/mL (≈ 139 µM); against Candida albicans (MTCC 227, 72 h), 50 µg/mL (≈ 116 µM); with Bacillus subtilis, 125 µg/mL (≈ 290 µM); in the test on Escherichia coli it was 30 µg/mL (≈ 69.5 µM); against Staphylococcus aureus it was 50 µg/mL (≈ 116 µM); against Aspergillus flavus, 130 µg/mL (≈ 301 µM). This molecule also registered an IC50 in test [2] of 30.1 µM. For the same molecule, the inhibition entry in test [3] is “Dose-dependent effect”.

On to `COc1ccc(C2=NN(c3ccccc3)C(c3cccc(Cl)c3Cl)C2)cc1` (stereo unspecified), for which the MIC90 was found to be 50 µg/mL (≈ 126 µM) against Aspergillus niger; 30 µg/mL (≈ 75.5 µM) with Candida albicans (MTCC 227, 72 h); 140 µg/mL (≈ 352 µM) in the test on Bacillus subtilis; 40 µg/mL (≈ 101 µM) in the test on Escherichia coli; 40 µg/mL (≈ 101 µM) in the test with Staphylococcus aureus; 125 µg/mL (≈ 315 µM) in the test on Aspergillus flavus. This molecule also gave an IC50 in test [2] of 11.9 µM. Further, the inhibition entry in test [3] is “Dose-dependent effect”. In addition, the inhibition entry in test [4] is “Active”.

As to `Cc1ccc(C2=NN(c3ccccc3)C(c3cccc(Cl)c3Cl)C2)cc1` (stereo unspecified), the MIC90 worked out at 75 µg/mL (≈ 197 µM) in the test on Aspergillus niger; 60 µg/mL (≈ 157 µM) in the test with Candida albicans (MTCC 227, 72 h); 120 µg/mL (≈ 315 µM) with Bacillus subtilis; 60 µg/mL (≈ 157 µM) in the test with Escherichia coli; 60 µg/mL (≈ 157 µM) against Staphylococcus aureus; 120 µg/mL (≈ 315 µM) in the test on Aspergillus flavus. Also, the IC50 in test [2] was determined as 21.7 µM. In addition, the inhibition result in [3] was “Dose-dependent effect”.

As for `Clc1cccc(C2CC(c3ccccc3)=NN2c2ccccc2)c1Cl` (stereo unspecified), the MIC90 in the test with Aspergillus niger turned out to be 30 µg/mL (≈ 81.7 µM); in the test on Candida albicans (MTCC 227, 72 h) it was 25 µg/mL (≈ 68.1 µM); in the test with Bacillus subtilis it was 125 µg/mL (≈ 340 µM); in the test with Escherichia coli it was 75 µg/mL (≈ 204 µM); against Staphylococcus aureus it was 50 µg/mL (≈ 136 µM); against Aspergillus flavus it was 110 µg/mL (≈ 299 µM). The molecule also displayed an IC50 in test [2] of 12 µM. The inhibition entry in [3] is “Dose-dependent effect”.

Turning to `Clc1cccc(C2CC(c3ccc4c(c3)OCO4)=NN2c2ccccc2)c1Cl` (stereo unspecified), the MIC90 worked out at 130 µg/mL (≈ 316 µM) against Aspergillus niger; 120 µg/mL (≈ 292 µM) with Candida albicans (MTCC 227, 72 h); 140 µg/mL (≈ 340 µM) against Bacillus subtilis; 140 µg/mL (≈ 340 µM) with Escherichia coli; 130 µg/mL (≈ 316 µM) with Staphylococcus aureus; 130 µg/mL (≈ 316 µM) in the test on Aspergillus flavus. For the same molecule, the midpoint of inhibition in test [2], the IC50, lay at 48.2 µM. Besides, in test [3], the inhibition entry is “Dose-dependent effect”.

Turning to `O=C(O)c1cn(C2CC2)c2cc(N3CCNCC3)c(F)cc2c1=O` [CIPROFLOXACIN], the MIC90 against Bacillus subtilis is 40 µg/mL (≈ 121 µM); against Escherichia coli, 20 µg/mL (≈ 60.4 µM); against Staphylococcus aureus it was 20 µg/mL (≈ 60.4 µM).

In the case of `COc1cccc(C2=NN(c3ccccc3)C(c3cccc(Cl)c3Cl)C2)c1` (stereo unspecified), the MIC90 came out at 40 µg/mL (≈ 101 µM) against Aspergillus niger; 40 µg/mL (≈ 101 µM) with Candida albicans (MTCC 227, 72 h); 130 µg/mL (≈ 327 µM) against Bacillus subtilis; 50 µg/mL (≈ 126 µM) in the test with Escherichia coli; 50 µg/mL (≈ 126 µM) against Staphylococcus aureus; 120 µg/mL (≈ 302 µM) against Aspergillus flavus. This molecule also yielded an IC50 in test [2] of 29.8 µM. For the same molecule, the inhibition entry in [3] was “Dose-dependent effect”.

On to `COc1ccccc1C1=NN(c2cccc(Cl)c2)C(c2cccc(Cl)c2Cl)C1` (stereo unspecified), for which the MIC90 against Aspergillus niger is 50 µg/mL (≈ 116 µM); with Candida albicans (MTCC 227, 72 h), 40 µg/mL (≈ 92.6 µM); in the test with Bacillus subtilis, 140 µg/mL (≈ 324 µM); against Escherichia coli, 40 µg/mL (≈ 92.6 µM); in the test with Staphylococcus aureus, 40 µg/mL (≈ 92.6 µM); in the test on Aspergillus flavus, 130 µg/mL (≈ 301 µM). In [2], this molecule displayed an IC50 of 35.1 µM. For the same molecule, the inhibition entry in [3] was “Dose-dependent effect”.

As for `Clc1cccc(N2N=C(c3ccccc3)CC2c2cccc(Cl)c2Cl)c1` (stereo unspecified), the MIC90 is 20 µg/mL (≈ 49.8 µM) against Aspergillus niger; 15 µg/mL (≈ 37.3 µM) with Candida albicans (MTCC 227, 72 h); 120 µg/mL (≈ 299 µM) in the test with Bacillus subtilis; 20 µg/mL (≈ 49.8 µM) with Escherichia coli; 20 µg/mL (≈ 49.8 µM) with Staphylococcus aureus; 125 µg/mL (≈ 311 µM) with Aspergillus flavus. In test [2], the IC50 was 19.3 µM. In addition, in test [3], the inhibition entry was “Dose-dependent effect”.

In the case of `COc1ccccc1C1=NN(c2ccccc2)C(c2cccc(Cl)c2Cl)C1` (stereo unspecified), the MIC90 is 40 µg/mL (≈ 101 µM) against Aspergillus niger; 30 µg/mL (≈ 75.5 µM) against Candida albicans (MTCC 227, 72 h); 125 µg/mL (≈ 315 µM) in the test with Bacillus subtilis; 50 µg/mL (≈ 126 µM) in the test with Escherichia coli; 40 µg/mL (≈ 101 µM) against Staphylococcus aureus; 125 µg/mL (≈ 315 µM) against Aspergillus flavus. In addition, in test [2], 30.3 µM corresponded to half-maximal inhibition (IC50). Further, in test [3], the inhibition result was “Dose-dependent effect”.

With NYSTATIN, the MIC90 against Aspergillus niger turned out to be 25 µg/mL; with Candida albicans, 20 µg/mL; against Aspergillus flavus, 25 µg/mL.

For the molecule `Clc1cccc(N2N=C(c3ccc4c(c3)OCO4)CC2c2cccc(Cl)c2Cl)c1` (stereo unspecified), the MIC90 with Aspergillus niger worked out at 120 µg/mL (≈ 269 µM); against Candida albicans (MTCC 227, 72 h), 130 µg/mL (≈ 292 µM); against Bacillus subtilis it was 140 µg/mL (≈ 314 µM); against Escherichia coli it was 130 µg/mL (≈ 292 µM); against Staphylococcus aureus it was 120 µg/mL (≈ 269 µM); in the test with Aspergillus flavus, 120 µg/mL (≈ 269 µM). In test [2], it took 49.8 µM to reach half-maximal inhibition (IC50). For the same molecule, the inhibition entry in test [3] was “Dose-dependent effect”.

On to `Fc1ccc(C2=NN(c3ccccc3)C(c3cccc(Cl)c3Cl)C2)cc1` (stereo unspecified), for which the MIC90 against Aspergillus niger worked out at 30 µg/mL (≈ 77.9 µM); against Candida albicans (MTCC 227, 72 h) it was 50 µg/mL (≈ 130 µM); against Bacillus subtilis, 125 µg/mL (≈ 324 µM); in the test on Escherichia coli, 25 µg/mL (≈ 64.9 µM); against Staphylococcus aureus it was 40 µg/mL (≈ 104 µM); with Aspergillus flavus, 120 µg/mL (≈ 311 µM). Besides, in [2], the IC50 came to 11.1 µM. In addition, the inhibition result in test [3] was “Dose-dependent effect”. For the same molecule, in test [5], the inhibition result is “Active”.

By MIC90 is commonly meant an inhibitory concentration at the 90% level, which refers to growth in some studies and to a panel of isolates in others. Read a high MIC90 as lower susceptibility. By IC50 is commonly meant the concentration that inhibits the measured activity by half. A high value points to weaker potency.
